Results on eight compounds are retold here after US8466289B2, “Heterocyclic sulfonamide derivatives” (Novartis AG, priority 2009, dated 2013).

Experiment [1] relates to BRAF-MEK-ERK cascade (activated BRAF (V599E), unactive MEK1, unactive MAP Kinase 2/ERK2). Nature of the experiment: BRAF-MEK-ERK enzymatic cascade assay (TR-FRET). Type of experiment: biochemical, human. As to conditions: compounds screened at 10 μM, 45 minutes pre-incubation with enzymes, 100 μM ATP. The source says: A BRAF-MEK-ERK cascade assay is used to evaluate the effects of the compounds as inhibitors of the MAP kinase pathway. An enzymatic cascade assay is set up using recombinant human activated BRAF (V599E) kinase (Cat No. 14-557), human full length unactive MEK1 kinase (Cat No. 14-706) and human full length unactive MAP Kinase 2/ERK2 (Cat No. 14-536) enzymes procured from Upstate. TR-FRET (Time resolved fluorescence resonance energy transfer) detection technology is used for the read out. The assay buffer solution contains 50 mM Tris pH 7.5, 10 mM MgCl2, 1 mM DTT, 0.01% Tween 20, 0.1 nM activated BRAF, 2 nM unactive MEK1, 10 nM unactive ERK2, 100 μM ATP and 500 nM long chain biotin-peptide substrate (LCB-FFKNIVTPRTPPP) in a 384 well format. The kinase reaction is stopped after 90 minutes with 10 mM EDTA and Lance detection mix (2 nM Eu-labeled phospho-serine/threonine antibody (Cat. No. AD0176-Perkin Elmer), 20 nM SA-APC (Cat No. CR130-100-Perkin Elmer) is added. The TR-FRET signal (Excitation at 340 nm, Emission at 615 nm and 665 nm) is read with 50 μs delay time on a Victor3 V fluorimeter. The data is calculated using the ratio of readings at 665 nm to 615 nm. The final concentration of DMSO is 2.5% in the assay. Compounds are screened at 10 μM concentration with pre-incubation of the enzymes in the presence of test compound for 45 minutes.
Each individual IC50 is determined using a 10 point dose response curve generated by GraphPad Prism software Version 4 (San Diego, Calif., USA) using non linear regression curve fit for sigmoidal dose response (variable slope).
These assays described above are fully detailed in Han, Shulin, et. al., Bioorganic & Medicinal Chemistry Letters (2005) 15, 5467-5473, and in Yeh, et. al., Clin Cancer Res (2007) 13 (5), 1576-1583.
(§1) The compounds of the above Examples were evaluated as inhibitors of the MAP kinase pathway in a BRAF-MEK-ERK enzymatic cascade assay and in the cell viability assay described above.

Experiment [2] concerns A375 cells. The experiment in a line: cell viability assay in A375 cells using XTT. Type of experiment: cell-based. Particulars: Homo sapiens, A-375, 72 h, XTT read three days after compound addition. As to the method:
The cell viability assay in A375 cells is set up in a 96-well plate format using XTT.
XTT is a yellow tetrazolium salt that is cleaved to an orange formazan dye by the mitochondria of metabolically active cells. The procedure allows for rapid determination in a microtitre plate, to give reproducible and sensitive results.
A375 cells are grown in DMEM media containing 10% FBS and 1 mM sodium pyruvate. Cells are trypsinized and seeded at 1000 cells/well. After allowing the cells to adhere overnight, compound is added to the wells at the following final concentrations: 10, 3, 1, 0.3, 0.1, 0.03, 0.01, 0.001, and 0.0001 μM. The assay is set up in triplicates for each concentration. DMSO concentrations are kept at 0.5%/well. Three days after compound addition, the XTT assay is performed. Wells are washed once with PBS. 100 μL of DMEM media without phenol red or FBS is added to each well. A working solution of XTT containing 1 mg/ml XTT and 100 μL of PMS (stock concentration 0.383 mg/ml) per 5 ml is prepared. 50 μL of the working solution of XTT is added to each well. Absorbance of the plate is read at 465 nm using a Spectramax 190 (Molecular Devices). The absorbance from wells with media and XTT alone, but without cells is considered the blank and subtracted from readings from all wells.
Percentage viability is calculated considering the blank subtracted value from wells treated with DMSO alone as 100% viable. GI50 values are calculated using Graphpad Prism, using non-linear regression curve fit for sigmoidal dose response (variable slope).
The cell viability assay is further described in Scudiero, et. al., Cancer Research (1988) 48, 4827-4833; Weislow, et. al., J. Natl. Cancer Institute, (1989) 81, 577-586; and Roehm, et. al., J. Immunol. Methods [1991]142:257-265.
as §1
(In general: Tetrazolium dyes change colour on reduction, which living cells bring about.)

Molecules are shown by their SMILES.

Turning to `Cc1c(Nc2ccc(I)cc2F)c(NS(=O)(=O)C2CC2)c2n(c1=O)CCS2` [Example 19A, Cyclopropanesulfonic acid [7-(2-fluoro-4-iodo-phenylamino)-6-methyl-5-oxo-2,3-dihydro-5H-thiazolo[3,2-a]pyridin-8-yl]-amide], the % inhibition (in general, the change of the read-out against control, counted positive when it falls) in experiment [1] is listed as 100%. It took 0.3 nM to inhibit growth in experiment [2] by half (GI50).
The corresponding values for `Cc1c(Nc2ccc(I)cc2F)c(NS(=O)(=O)C2(CC(O)CO)CC2)c2n(c1=O)CCS2` (stereo not shown) [Example 20A, 1-(2,3-Dihydroxy-propyl)-cyclopropanesulfonic acid [7-(2-fluoro-4-iodo-phenylamino)-6-methyl-5-oxo-2,3-dihydro-5H-thiazolo[3,2-a]pyridin-8-yl]-amide] are 100% and 54 nM.
The corresponding values for `Cc1c(Nc2ccc(I)cc2F)c(NS(=O)(=O)C2CC2CO)c2n(c1=O)CCS2` (stereo not shown) [Example 21A, 2-Hydroxymethyl-cyclopropanesulfonic acid [7-(2-fluoro-4-iodo-phenylamino)-6-methyl-5-oxo-2,3-dihydro-5H-thiazolo[3,2-a]pyridin-8-yl]-amide] are 100% and 158 nM.
The corresponding values for `Cc1c(Nc2ccc(I)cc2F)c(NS(=O)(=O)C2(CO)CC2)c2n(c1=O)CCS2` [Example 22A, 1-Hydroxymethyl-cyclopropanesulfonic acid [7-(2-fluoro-4-iodo-phenylamino)-6-methyl-5-oxo-2,3-dihydro-5H-thiazolo[3,2-a]pyridin-8-yl]-amide] are 97% and 61 nM.
Turning to `Cc1c(Nc2ccc(I)cc2F)c(NS(=O)(=O)N(C)C)c2n(c1=O)CCS2` [Example 23A, N-[7-(2-Fluoro-4-iodo-phenylamino)-6-methyl-5-oxo-2,3-dihydro-5H-thiazolo[3,2-a]pyridin-8-yl]-dimethylaminosulfonamide], the “% inhibition” value in experiment [1] was 100%. In addition, the GI50 (commonly the concentration that inhibits growth by half) in experiment [2] was 107 nM.
The matching figures for `Cc1c(Nc2ccc(I)cc2F)c(NS(=O)(=O)C2CCCC2)c2n(c1=O)CCS2` [Example 24A, Cyclopentanesulfonic acid [7-(2-fluoro-4-iodo-phenylamino)-6-methyl-5-oxo-2,3-dihydro-5H-thiazolo[3,2-a]pyridin-8-yl]-amide]: 100% and 192 nM.
The matching figures for `Cc1c(Nc2ccc(I)cc2F)c(NS(=O)(=O)C2CC(O)C2)c2n(c1=O)CCS2` (stereo not shown) [Example 25A, 3-Hydroxy-cyclobutanesulfonic acid [7-(2-fluoro-4-iodo-phenylamino)-6-methyl-5-oxo-2,3-dihydro-5H-thiazolo[3,2-a]pyridin-8-yl]-amide]: 100% and 922 nM.
As for `Cc1c(Nc2ccc(I)cc2F)c(NS(=O)(=O)C2CCC2)c2n(c1=O)CCS2` [Example 26A, Cyclobutanesulfonic acid [7-(2-fluoro-4-iodo-phenylamino)-6-methyl-5-oxo-2,3-dihydro-5H-thiazolo[3,2-a]pyridin-8-yl]-amide], in experiment [1], the “% inhibition” value is reported as 100%. In experiment [2], this compound showed a GI50 of 156 nM.
